Experimental data as given in patent publication US9623021B2, “Nuclear receptor binding agents” (GTX, Inc., priority 2007, dated 2017).
“Also recorded” adds a separate entry of the source.

Legend:
SHP promoter = assay: SHP promoter-luciferase in HEK-293 cells transfected with FXR and ER-β; type: cell-based; conditions: FXR and ER-β plasmids, FIG. 12E right panel
Experimental: FIG. 12 depict the effect of ER-β ligand on PPAR-γ function through ligand binding domain (LBD). (A). HEK-293 cells were transfected with 0.25 μg PPRE-LUC, 5 ng CMV-renilla LUC and the indicated receptors (PPAR-γ and ER-β for the left panel and PPAR-α and ER-β for the right panel). The cells were treated 24 hrs after transfection with the indicated ligands and harvested 48 hrs after transfection and firefly luciferase activity was measured and normalized to renilla luciferase. (B). H475 in ER-β LBD is important for its function. H475 in ER-β LBD was mutated to alanine (A) using a site directed mutagenesis kit. Transactivation assay was performed as described in panel A in HEK-293 cells with a titration of ER-β ligands in wild type or ER-β H475A. (C). […] HEK-293 cells were transfected with 0.25 μg PPRE-LUC, 5 ng CMV-renilla LUC and 50 ng of the indicated receptors (PPAR-γ or PPAR-γ and wild type ER-β or PPAR-γ and ER-β H475A). The cells were treated 24 hrs after transfection with the indicated ligands and harvested 48 hrs after transfection and firefly luciferase activity was measured and normalized to renilla luciferase. (D). […] HepG2 cells were transfected with 0.25 μg PPRE-LUC, 5 ng CMV-renilla LUC, 0.5 μg PGC-1 or vector backbone and 100 ng of the indicated receptors (PPAR-γ or PPAR-γ and wild type ER-β or PPAR-γ and ER-β H475A for top panels and PPAR-α or PPAR-α and ER-β for bottom panel). The cells were treated 24 hrs after transfection with the indicated ligands and harvested 48 hrs after transfection and firefly luciferase activity was measured and normalized to renilla luciferase. (E). SHP-1 is an ER-β specific target gene. HEK-293 cells were transfected with 0.25 μg SHP-LUC, 5 ng CMV-renilla LUC and 50 ng of the indicated receptors (FXR and ER-α for the left panel and FXR and ER-β for the right panel). The cells were treated 24 hrs after transfection with the indicated ligands and harvested 48 hrs after transfection and firefly luciferase activity was measured and normalized to renilla luciferase. […]

[1] = system: THP-1 macrophage cell adhesion to bEND-3 endothelial cells; assay: Macrophage adhesion assay (LPS induced THP-1 adhesion to bEND-3 endothelial cells); type: cell-based; conditions: FIG. 13
Experimental: To determine the anti-inflammatory effects of ER-β NRBAs in vitro, a macrophage adhesion assay was performed. Macrophages adhere to endothelial cells due to elevated levels of pro-inflammatory cytokines. This principle was used in this assay to determine the effect of one of the ER-β NRBAs on bacterial lipopolysaccharide (LPS) induced THP-1 macrophage cell adhesion to bEND-3 endothelial cells.

C-26 colon cancer cells = assay: C-26 colon cancer cell proliferation (3H thymidine incorporation); type: cell-based; conditions: treated for 3 days, FIG. 22
Experimental: (§1) The effects of treatment of an ER-β selective NRBA of this invention on cancer cell proliferation was examined using LNCaP prostate cancer cells and C-26 colon cancer cells. LNCaP or C-26 cells were plated in growth medium in 24 well and 6 well plates, respectively. LNCaP cells were treated for 6 days and C-26 cells were treated for 3 days at the indicated concentration. ^3H thymidine incorporation was measured at the end of treatment as an indicator of cell proliferation.

[2] = system: high fat diet fed C57BL6 mice; assay: High fat diet induced obesity model, prevention studies (studies 1 and 2)
Experimental: Study A: C57BL6 male mice of 4 weeks of age were divided into different groups and were fed with a normal or high fat diet (Harlan, Ind.).
For the treatment study (study 3), the animals were maintained on the irrespective diets for 6 weeks and then treated daily as indicated for an additional 18 weeks. Biweekly body weights and food consumption were measured. The animals were sacrificed at the end of each study and blood and tissues were collected for RNA isolation, histology and protein estimation.
Cholesterol and leptin concentrations were measured in serum using ELISA-based methods.
Histology was performed on cryosections and stained with oil 0 red.
Oral glucose tolerance tests (OGTT) were performed on 16-h fasted mice. Mice were given 150 mg glucose by oral gavage through a gastric tube.
Six week old C57BL/6 mice were randomized, based on body weight, into three study groups as shown in the Study Parameters Table below.
The mice were treated for 12 weeks. Twice weekly, the body weight and feed consumption were measured.
A glucose tolerance test was also performed at the completion of the study by administering 150 mg glucose orally to the mice and measuring blood glucose levels at 0, 15, 30 and 60 minutes post glucose administration.
At sacrifice, the mice organ weights were measured and collected for histology, gene expression and protein expressions. Blood was collected for serum marker determination (cholesterol, glucose, leptin).
Dual energy X-ray absorptiometry (DEXA) was performed to measure the body composition in Study 1.
An MRI scan was performed at the beginning of the study, after 6 weeks and at the completion of the study.

[3] = system: LNCaP prostate cancer cells; assay: LNCaP prostate cancer cell proliferation (3H thymidine incorporation); type: cell-based; conditions: treated for 6 days, FIG. 21
Experimental: as §1

ER-α = ER-α (Rattus norvegicus (Rat), UniProt P06211); type: cell-based; conditions: 100 nM NRBA compared to 1 nM estradiol
In short: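 COS or 293 cells in phenol red-free medium with charcoal-stripped FBS, transfected with a 2×ERE firefly luciferase reporter, CMV-Renilla control and rat-cloned receptor. Compounds, estrogen or DHT added 24 h post transfection, alone or combined; firefly and Renilla luciferase read 48 h after transfection.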

[4] = system: LNCaP cells and human prostate stromal cells xenograft; assay: LNCaP-stromal cell xenograft tumor growth; type: in vivo, nude mice; conditions: 30 mg/kg/day for 21 days, by day 21
Experimental: Prostate tumor xenografts were established with LNCaP cells and human prostate stromal cells in nude mice to establish the in vivo anti-proliferative effects of these ER-β NRBAs. A 4:1 ratio (based on cell number) of LNCaP:stroma cells was injected subcutaneously in nude mice and allowed to grow until they attained 100 mm^3 in volume, as measured by calipers. […] Tumor volumes were measured twice a week and percent tumor volume calculated, after 10, 14 and 21 days.

PPAR-γ = PPAR-γ transactivation (PPRE-LUC) in HEK-293 cells co-transfected with ER-β; type: cell-based; conditions: FIG. 12A left panel
Experimental: FIG. 12 depict the effect of ER-β ligand on PPAR-γ function through ligand binding domain (LBD). (A). HEK-293 cells were transfected with 0.25 μg PPRE-LUC, 5 ng CMV-renilla LUC and the indicated receptors (PPAR-γ and ER-β for the left panel and PPAR-α and ER-β for the right panel). The cells were treated 24 hrs after transfection with the indicated ligands and harvested 48 hrs after transfection and firefly luciferase activity was measured and normalized to renilla luciferase. (B). H475 in ER-β LBD is important for its function. H475 in ER-β LBD was mutated to alanine (A) using a site directed mutagenesis kit. Transactivation assay was performed as described in panel A in HEK-293 cells with a titration of ER-β ligands in wild type or ER-β H475A. (C). […] The cells were treated 24 hrs after transfection with the indicated ligands and harvested 48 hrs after transfection and firefly luciferase activity was measured and normalized to renilla luciferase. […] The cells were treated 24 hrs after transfection with the indicated ligands and harvested 48 hrs after transfection and firefly luciferase activity was measured and normalized to renilla luciferase. […] The cells were treated 24 hrs after transfection with the indicated ligands and harvested 48 hrs after transfection and firefly luciferase activity was measured and normalized to renilla luciferase. […]

ARPE-19 cells = assay: Fluorescent detection of intracellular ROS in ARPE-19 cells (tBH oxidative stress); conditions: 150 μM tBH, FIG. 20B
[5] = high fat diet, 30 mg/kg/day s.c., 12 weeks, FIG. 7
[6] = high fat diet, 30 mg/kg/day s.c., Study 2

How did the SHP activity (SHP promoter) turn out when `O=c1c2c(O)cc(O)cc2c(Br)cn1-c1ccc(O)cc1` [Compound 12u, 4-bromo-6,8-dihydroxy-2-(4-hydroxyphenyl)isoquinolin-1(2H)-one] was run?
The SHP activity was “neither of the ligands activated SHP”.

And the “adhesion of 3H labeled THP-1 cells to bEND-3 cells” value [1]?
Its value is “significantly inhibited the adhesion”.

And the “growth of C-26 colon cancer cells” value (C-26 colon cancer cells)?
The value was “significantly inhibited the growth”.

What about the “prevention of body weight increase caused by the high fat diet” value ([2]; 30 mg/kg/day s.c., 12 weeks, Study 2) of the same molecule?
The value was “more than 50%”.

What about the gastrocnemius muscle weight [2, 5] of the same molecule?
Its gastrocnemius muscle weight is “increased gastrocnemius muscle weight”.

And the “white adipose tissue (WAT) weight” value [2, 5]?
Its value is “prevented the increase in the WAT weight; also recorded: comparably decreased WAT weight”.

And the “fat mass (MRI)” value [2, 6]?
Its value is “reduce fat mass”.

And the “lean mass (MRI)” value [2, 6]?
Its value is “increase muscle mass; also recorded: increased the lean mass”.

And the “prevention of the increase in body fat (MRI)” value [2, 6]?
Its value is “more than 50%”.

And the testes weights ([2]; high fat diet, 12 weeks, FIG. 9A)?
Its testes weights is “not altered”.

And the serum testosterone levels ([2]; high fat diet, 12 weeks, FIG. 9B)?
The serum testosterone levels was “did not affect; also recorded: not altered”.

What about the “serum follicle stimulating hormone (FSH)” value ([2]; high fat diet, 12 weeks, FIG. 9C) of the same molecule?
Its value is “not altered”.

What about the “growth of LNCaP prostate cancer cells” value [3] of the same molecule?
The value was “significantly inhibited the growth”.

What about the “Estradiol activity at 100 nM, ER-α” value (ER-α) of the same molecule?
Its value is 62%.

And the “tumor growth (percent tumor volume)” value [4]?
The value was “inhibited the growth of tumor significantly”.

What about the “troglitazone-induced PPAR-γ activity” value (PPAR-γ) of the same molecule?
The value was “partially inhibited”.

What about the “prevention of ROS formation / oxidative damage” value (ARPE-19 cells) of the same molecule?
Its value is “did not seem to have any effect”.
